Laboratory results reported in the supplement of paper PMC10307832.

Assays:
Assay in all cases: relative viability (nuclei count vs DMSO), 5 days (fraction); higher = more cells survive
BEN = tested on: BEN
Method in brief: (§1)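 For relative viability, nuclei counts in treated wells were divided by those in vehicle wells. Lung cancer cell lines had been pin-tool dosed in 1536-well plates the day after seeding and cultured for 5 days, then fixed and stained in one step (final 0.05% Triton X-100, 1% formaldehyde, 1 ug/ml Hoechst) and imaged at 4×. Doses were one drug alone or a fixed anchor-drug dose plus five library-drug doses (not always all listed) in √10 steps, and values are duplicate-plate medians.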

EKVX = tested on: EKVX
Method in brief: as §1

HARA = tested on: HARA
Method in brief: as §1

HCC-366 = tested on: HCC-366
Method in brief: as §1

HCC-44 = tested on: HCC-44
Method in brief: as §1

HCC-827 = tested on: HCC-827
Method in brief: as §1

LC-2-ad = tested on: LC-2-ad
Method in brief: as §1

LOU-NH91 = tested on: LOU-NH91
Method in brief: as §1

NCI-H1355 = tested on: NCI-H1355
Method in brief: as §1

NCI-H1395 = tested on: NCI-H1395
Method in brief: as §1

NCI-H1437 = tested on: NCI-H1437
Method in brief: as §1

NCI-H1734 = tested on: NCI-H1734
Method in brief: as §1

NCI-H1792 = tested on: NCI-H1792
Method in brief: as §1

NCI-H2009 = tested on: NCI-H2009
Method in brief: as §1

NCI-H2087 = tested on: NCI-H2087
Method in brief: as §1

NCI-H2170 = tested on: NCI-H2170
Method in brief: as §1

NCI-H2228 = tested on: NCI-H2228
Method in brief: as §1

NCI-H2405 = tested on: NCI-H2405
Method in brief: as §1

NCI-H596 = tested on: NCI-H596
Method in brief: as §1

NCI-H647 = tested on: NCI-H647
Method in brief: as §1

SK-LU-1 = tested on: SK-LU-1
Method in brief: as §1

SK-MES-1 = tested on: SK-MES-1
Method in brief: as §1

With `Clc1ccc(Nc2nnc(Cc3ccncc3)c3ccccc23)cc1` [Vatalanib] + CC1(C)CCC(c2ccc(Cl)cc2)=C(CN2CCN(c3ccc(C(=O)NS(=O)(=O)c4ccc(N[C@H](CCN5CCOCC5)CSc5ccccc5)c(S(=O)(=O)C(F)(F)F)c4)cc3)CC2)C1 [Navitoclax] (partner 0.5 µM) the relative viability (BEN; first compound 0.04 µM) was 0.0773, the relative viability (BEN; first compound 0.1265 µM) was 0.0662 and the relative viability (BEN; first compound 0.4 µM) was 0.0617. The relative viability (BEN; first compound 1.265 µM) was 0.0622, the relative viability (BEN; first compound 4 µM) was 0.0608 and the relative viability (EKVX; first compound 0.04 µM) was 0.924. It also gave a relative viability (EKVX; first compound 0.1265 µM) of 0.928, a relative viability (EKVX; first compound 0.4 µM) of 1 and a relative viability (EKVX; first compound 1.265 µM) of 0.839. For the same compound, the relative viability (EKVX; first compound 4 µM) was 0.891, the relative viability (HARA; first compound 0.04 µM) was 1.08 and the relative viability (HARA; first compound 0.1265 µM) was 1.03. For the same compound, the relative viability (HARA; first compound 0.4 µM) was 1.18, the relative viability (HARA; first compound 1.265 µM) was 1.11 and the relative viability (HARA; first compound 4 µM) was 1.13. It also gave a relative viability (HCC-366; first compound 0.04 µM) of 1.09, a relative viability (HCC-366; first compound 0.1265 µM) of 0.816 and a relative viability (HCC-366; first compound 0.4 µM) of 1.25. It also gave a relative viability (HCC-366; first compound 1.265 µM) of 1.03, a relative viability (HCC-366; first compound 4 µM) of 0.991 and a relative viability (HCC-44; first compound 0.04 µM) of 0.933. The relative viability (HCC-44; first compound 0.1265 µM) was 0.916, the relative viability (HCC-44; first compound 0.4 µM) was 0.93 and the relative viability (HCC-44; first compound 1.265 µM) was 0.915. It also gave a relative viability (HCC-44; first compound 4 µM) of 0.919, a relative viability (HCC-827; first compound 0.04 µM) of 1.01 and a relative viability (HCC-827; first compound 0.1265 µM) of 0.982. The relative viability (HCC-827; first compound 0.4 µM) was 1.06, the relative viability (HCC-827; first compound 1.265 µM) was 0.994 and the relative viability (HCC-827; first compound 4 µM) was 0.97. It also gave a relative viability (LC-2-ad; first compound 0.04 µM) of 0.415, a relative viability (LC-2-ad; first compound 0.1265 µM) of 0.456 and a relative viability (LC-2-ad; first compound 0.4 µM) of 0.558. The relative viability (LC-2-ad; first compound 1.265 µM) was 0.412, the relative viability (LC-2-ad; first compound 4 µM) was 0.529 and the relative viability (LOU-NH91; first compound 0.04 µM) was 0.703. For the same compound, the relative viability (LOU-NH91; first compound 0.1265 µM) was 0.558, the relative viability (LOU-NH91; first compound 0.4 µM) was 0.61 and the relative viability (LOU-NH91; first compound 1.265 µM) was 0.612. It also gave a relative viability (LOU-NH91; first compound 4 µM) of 0.61, a relative viability (NCI-H1355; first compound 0.04 µM) of 0.962 and a relative viability (NCI-H1355; first compound 0.1265 µM) of 0.927. For the same compound, the relative viability (NCI-H1355; first compound 0.4 µM) was 1.01, the relative viability (NCI-H1355; first compound 1.265 µM) was 0.875 and the relative viability (NCI-H1355; first compound 4 µM) was 0.917. The relative viability (NCI-H1395; first compound 0.04 µM) was 1.17, the relative viability (NCI-H1395; first compound 0.1265 µM) was 1.07 and the relative viability (NCI-H1395; first compound 0.4 µM) was 1.37. The relative viability (NCI-H1395; first compound 1.265 µM) was 1.07, the relative viability (NCI-H1395; first compound 4 µM) was 1.08 and the relative viability (NCI-H1437; first compound 0.04 µM) was 1.09. It also gave a relative viability (NCI-H1437; first compound 0.1265 µM) of 1.09, a relative viability (NCI-H1437; first compound 0.4 µM) of 1.12 and a relative viability (NCI-H1437; first compound 1.265 µM) of 1.13. The relative viability (NCI-H1437; first compound 4 µM) was 1.15, the relative viability (NCI-H1734; first compound 0.04 µM) was 0.921 and the relative viability (NCI-H1734; first compound 0.1265 µM) was 0.719. The relative viability (NCI-H1734; first compound 0.4 µM) was 0.927, the relative viability (NCI-H1734; first compound 1.265 µM) was 0.823 and the relative viability (NCI-H1734; first compound 4 µM) was 0.822. It also gave a relative viability (NCI-H1792; first compound 0.04 µM) of 0.648, a relative viability (NCI-H1792; first compound 0.1265 µM) of 0.611 and a relative viability (NCI-H1792; first compound 0.4 µM) of 0.688. It also gave a relative viability (NCI-H1792; first compound 1.265 µM) of 0.678, a relative viability (NCI-H1792; first compound 4 µM) of 0.624 and a relative viability (NCI-H2009; first compound 0.04 µM) of 1.18. For the same compound, the relative viability (NCI-H2009; first compound 0.1265 µM) was 1.09, the relative viability (NCI-H2009; first compound 0.4 µM) was 1.24 and the relative viability (NCI-H2009; first compound 1.265 µM) was 1.12. For the same compound, the relative viability (NCI-H2009; first compound 4 µM) was 1.13, the relative viability (NCI-H2087; first compound 0.04 µM) was 1.11 and the relative viability (NCI-H2087; first compound 0.1265 µM) was 1.09. The relative viability (NCI-H2087; first compound 0.4 µM) was 1.07, the relative viability (NCI-H2087; first compound 1.265 µM) was 0.994 and the relative viability (NCI-H2087; first compound 4 µM) was 0.964. It also gave a relative viability (NCI-H2170; first compound 0.04 µM) of 0.584, a relative viability (NCI-H2170; first compound 0.1265 µM) of 0.674 and a relative viability (NCI-H2170; first compound 0.4 µM) of 0.621. The relative viability (NCI-H2170; first compound 1.265 µM) was 0.51, the relative viability (NCI-H2170; first compound 4 µM) was 0.589 and the relative viability (NCI-H2228; first compound 0.04 µM) was 0.845. It also gave a relative viability (NCI-H2228; first compound 0.1265 µM) of 0.92, a relative viability (NCI-H2228; first compound 0.4 µM) of 1.1 and a relative viability (NCI-H2228; first compound 1.265 µM) of 0.755. The relative viability (NCI-H2228; first compound 4 µM) was 0.83, the relative viability (NCI-H2405; first compound 0.04 µM) was 0.856 and the relative viability (NCI-H2405; first compound 0.1265 µM) was 0.726. For the same compound, the relative viability (NCI-H2405; first compound 1.265 µM) was 0.728, the relative viability (NCI-H2405; first compound 4 µM) was 0.713 and the relative viability (NCI-H596; first compound 0.04 µM) was 0.972. It also gave a relative viability (NCI-H596; first compound 0.1265 µM) of 1, a relative viability (NCI-H596; first compound 0.4 µM) of 1.08 and a relative viability (NCI-H596; first compound 1.265 µM) of 0.767. The relative viability (NCI-H596; first compound 4 µM) was 0.986, the relative viability (NCI-H647; first compound 0.04 µM) was 1.08 and the relative viability (NCI-H647; first compound 0.1265 µM) was 1.01. For the same compound, the relative viability (NCI-H647; first compound 1.265 µM) was 1.05, the relative viability (NCI-H647; first compound 4 µM) was 0.957 and the relative viability (SK-LU-1; first compound 0.04 µM) was 0.755. The relative viability (SK-LU-1; first compound 0.1265 µM) was 0.594, the relative viability (SK-LU-1; first compound 0.4 µM) was 0.742 and the relative viability (SK-LU-1; first compound 1.265 µM) was 0.832. It also gave a relative viability (SK-LU-1; first compound 4 µM) of 0.82, a relative viability (SK-MES-1; first compound 0.04 µM) of 1.2 and a relative viability (SK-MES-1; first compound 0.1265 µM) of 1.21. For the same compound, the relative viability (SK-MES-1; first compound 0.4 µM) was 1.28, the relative viability (SK-MES-1; first compound 1.265 µM) was 1.01 and the relative viability (SK-MES-1; first compound 4 µM) was 1.15.
